In US6545032B1, “Synthesis of [3,5,7]-H-imidazo[1,5-a] imidazol-2(3H)-one compounds” (Torrey Pines Institute for Molecular Studies, priority 1999, dated 2003):

Experiments:
mu opiate receptor = biological target: T1, mu opiate receptor (Rattus norvegicus, UniProt P33535); experiment: Inhibition of [3H]DAMGO binding to the mu opiate receptor in rat brain homogenates; parameters: Mean: unit not given beside the values; settings: 0.08 mg of compound per milliliter, 7 nM 3H-labeled DAMGO, rat brain membranes; for % Bound: [3H]DAMGO bound; for Mean: mean bound radioactivity of [3H]DAMGO; for Minus NSB*: mean minus non-specific binding; for % Inhibition: percent inhibition of DAMGO binding
T1 construct: from tissue; host or cells: rat brain membranes/homogenate
T1 sequence (P33535 whole entry): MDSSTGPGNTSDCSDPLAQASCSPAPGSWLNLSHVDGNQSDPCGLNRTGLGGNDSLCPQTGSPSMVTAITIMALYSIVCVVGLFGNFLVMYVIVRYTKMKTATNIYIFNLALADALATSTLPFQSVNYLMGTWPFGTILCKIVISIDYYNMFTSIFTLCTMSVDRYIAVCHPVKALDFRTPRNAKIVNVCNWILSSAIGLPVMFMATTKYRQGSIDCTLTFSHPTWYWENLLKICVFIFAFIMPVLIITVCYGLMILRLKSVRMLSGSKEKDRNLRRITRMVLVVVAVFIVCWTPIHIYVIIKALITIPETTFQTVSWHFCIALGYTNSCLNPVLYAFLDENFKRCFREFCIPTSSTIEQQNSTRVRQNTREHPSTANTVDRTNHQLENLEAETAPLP
Description: The previously prepared [3,5,7]-1H-imidazo[1,5-a]-imidazol-2(3H)-one library of individual compounds was screened for the ability to inhibit the binding of [^3H] [D-Ala^2,MePhe^4,Gly^5-ol]enkephalin (DAMGO) that is known to bind specifically to the mu opiate receptor present in rat brain homogenates following literature procedures. [Dooley et al., Science, 266:2019(1994); U.S. Pat. No. 5,763,193.]
Preparation of rat brain membranes and the receptor binding assay were carried out as described in Dooley et al., Life Sci., 52:1509(1993). Each tube in the screening assay contained 0.08 mg of compound mixture per milliliter, 0.5 mL of membrane suspension (0.1 mg of protein), 7 nM ^3H-labeled DAMGO [specific activity 36 Ci/mmol, obtained from the National Institute on Drug Abuse (NIDA) repository through Chiron Mimotopes PeptideSystems (San Diego, Calif.) and […] of peptide mixture in 50 mM Tris-HCl buffer (pH 7.4). The final volume was 0.65 mL. The results of these screenings are shown in the table, below, wherein the “R” groups are as discussed for Example 1. The results are reported as percent inhibition of DAMGO binding.

kappa opiate receptor = biological target: T2, kappa opiate receptor (Cavia porcellus, UniProt P41144); experiment: Inhibition of tritiated U69,593 binding to the kappa opiate receptor in guinea pig brain homogenates; parameters: Mean: unit not given beside the values; settings: 3 nm tritiated U69,593, guinea pig brain membranes; for % Bound: [3H]U69,593 bound; for % Inhibition: inhibition of [3H]U69,593 binding; for Mean: mean bound radioactivity of [3H]U69,593, 2.5 hours 25° C.; for Minus NSB: mean minus non-specific binding
T2 construct: guinea pig cortices and cerebella were homogenized in 40 mL of Buffer A; from tissue; host or cells: guinea pig cortices and cerebella, crude membrane suspension
T2 sequence (P41144 whole entry): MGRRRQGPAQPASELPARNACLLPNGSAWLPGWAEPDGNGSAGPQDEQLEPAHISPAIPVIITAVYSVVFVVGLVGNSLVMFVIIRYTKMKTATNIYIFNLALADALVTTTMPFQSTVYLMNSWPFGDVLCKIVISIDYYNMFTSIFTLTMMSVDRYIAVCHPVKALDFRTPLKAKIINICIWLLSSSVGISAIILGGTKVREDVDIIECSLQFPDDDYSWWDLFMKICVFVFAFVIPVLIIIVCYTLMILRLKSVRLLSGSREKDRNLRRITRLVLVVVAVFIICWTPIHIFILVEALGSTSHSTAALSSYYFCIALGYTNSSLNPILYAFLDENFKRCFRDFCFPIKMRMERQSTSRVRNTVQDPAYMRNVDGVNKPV
Description: The above-prepared library of individual compounds was screened for the ability to inhibit the binding of tritiated Compound U69,593 that is known to bind specifically to the kappa opiate receptor present in guinea pig brain homogenates following literature procedures. [Dooley et al., J. Biol. Chem., 273(30) 18848-18856 (1998)]
Briefly, guinea pig cortices and cerebella were homogenized in 40 mL of Buffer A [50 mM Tris-HCl, pH 7.4] at 4° C. Homogenates were centrifuged [Beckman® J2-HC, 35, 300×g] for 10 minutes. The pellets were resuspended in fresh buffer and incubated at 37° C. for 40 minutes. Following incubation, the suspensions were centrifuged as before, the resulting pellets resuspended in 100 volumes of Tris buffer, and the suspensions combined. Membrane suspensions were prepared and used on the same day. Protein content of the crude homogenates was determined by the method of Bradford, Anal. Biochem., 72:248-252 (1976).
Each assay tube contained 0.5 mL of membrane suspension, 3 nm of tritiated Compound U69,593 [(5a,7a,8b)-(−)-N-methyl-N-(7-(1-pyrrolidinyl)-1-oxaspiro(4,5)dec-8-yl)-benzeneacetamide; Lahti et al., European J. Pharmacol., 109:281-284(199-85)] in a total volume of 0.65 mL. Assay tubes were incubated for 2.5 hours a 25° C. The assay was then filtered through GF-B filters on a Tomec™ harvester (Orange, Conn.). The filters were subsequently washed with 6 mL of 50 mM Tris-HC1, pH 7.4 at 4° C. Bound radioactivity was counted on a Wallace™ Beta-plate Liquid Scintillation Counter (Piscataway, N.J.). Unlabeled U50, 488 [(trans-(dl)-3,4-dichloro-N-methyl-N-[2-(1-pyrrolidinyl)cyclohexyl]-benzeneacetamide) methane sulfonate hydrate; Lahti et al., Life Sci., 31:2257-xx(1982) and Von Voightlander et al., J. Pharmacol. Exp. Ther., 224:7 (1983)] was used as a competitive inhibitor to generate a standard curve and determine nonspecific binding. The results of these assays are shown in the table, below, wherein the “R” groups are as discussed for Example 1.

SMILES	% Bound (mu opiate receptor) [%]	Mean (mu opiate receptor)	Minus NSB* (mu opiate receptor)	% Inhibition (mu opiate receptor) [%]	% Bound (kappa opiate receptor) [%]	% Inhibition (kappa opiate receptor) [%]	Mean (kappa opiate receptor)	Minus NSB (kappa opiate receptor)
CC(C)c1nc(CC2CC3CCC2C3)n2c1NC(=O)C2C(C)C (centres unmarked) [Pool 155]	64	918.35	610.35	36	69.040	30.960	1622.25	715.25
Cc1nc(C)n2c1NC(=O)C2C(C)C (centres unmarked) [Pool 51]	62	902.75	594.75	38	71.313	28.687	1645.8	738.80
CC(C)c1nc(Cc2cccc(Br)c2)n2c1NC(=O)C2C(C)C (racemic) [Pool 72]	27	563	255.00	73	65.748	34.252	1588.15	681.15
Cc1ncc2n1C(C(C)C)C(=O)N2 (centres unmarked) [Pool 34]	68	956.4	648.40	32	79.117	20.883	1726.65	819.65
CC(C)c1nc(C(C)C)n2c1NC(=O)C2C(C)C (racemic) [Pool 123]	55	832.5	524.50	45	57.124	42.876	1498.8	591.80
CC(C)c1nc(CC23CC4CC(CC(C4)C2)C3)n2c1NC(=O)C2C(C)C (centres unmarked) [Pool 156]	65	925.85	617.85	35	78.803	21.197	1723.4	816.40
CC(C)c1nc(C(C)(C)C)n2c1NC(=O)C2C(C)C (centres unmarked) [Pool 135]	65	931.85	623.85	35	69.170	30.830	1623.6	716.60
CCC(C)C1C(=O)Nc2c(C(C)C)nc(C)n21 (centres unmarked) [Pool 21]	55	833.5	525.50	45	56.921	43.079	1496.7	589.70
Cc1nc(C(C)C)c2n1C(C)C(=O)N2 (centres unmarked) [Pool 18]	71	989.15	681.15	29	88.016	11.984	1818.85	911.85
CC(C)CCc1nc(C(C)C)c2n1C(C(C)C)C(=O)N2 (centres unmarked) [Pool 127]	63	909.6	601.60	37	66.178	33.822	1592.6	685.60
Cc1nc(CC2CCCCC2)c2n1C(C(C)C)C(=O)N2 (racemic) [Pool 62]	52	805	497.00	48	83.909	16.091	1776.3	869.30
CC(C)c1nc(CCCC2CCCCC2)n2c1NC(=O)C2C(C)C (centres unmarked) [Pool 140]	32	615.55	307.55	68	49.903	50.097	1424	517.00
CCCCC1C(=O)Nc2c(C(C)C)nc(C)n21 (centres unmarked) [Pool 27]	59	871.25	563.25	41	79.855	20.145	1734.3	827.30
CCCCc1nc(C)n2c1NC(=O)C2C(C)C (centres unmarked) [Pool 44]	67	947.55	639.55	33	110.299	−10.299	2049.7	1142.70
Cc1nc(C(C)C)c2n1C(CC1CCCCC1)C(=O)N2 (centres unmarked) [Pool 29]	61	891.65	583.65	39	88.277	11.723	1821.55	914.55
Cc1nc(C)n2c1NC(=O)C2C(C)C (centres unmarked) [Pool 35]	47	753.5	445.50	53	77.693	22.307	1711.9	804.90
Cc1nc(Cc2ccc(O)cc2)c2n1C(C(C)C)C(=O)N2 (racemic) [Pool 64]	42	710.9	402.90	58	61.631	38.369	1545.5	638.50
CC(C)c1nc(CCCc2ccccc2)n2c1NC(=O)C2C(C)C (racemic) [Pool 113]	43	716.3	408.30	57	61.597	38.403	1545.15	638.15
CCCC1C(=O)Nc2c(C(C)C)nc(C)n21 (centres unmarked) [Pool 12]	72	998.7	690.70	28	74.706	25.294	1680.95	773.95
CCCc1nc(C)n2c1NC(=O)C2C(C)C (centres unmarked) [Pool 45]	62	902.55	594.55	38	85.275	14.725	1790.45	883.45
CCCC1C(=O)Nc2c(C(C)C)nc(C)n21 (centres unmarked) [Pool 28]	66	932.9	624.90	34	67.601	32.399	1607.35	700.35
COc1ccc(Cc2nc(C(C)C)c3n2C(C(C)C)C(=O)N3)cc1OC (racemic) [Pool 87]	59	870.35	562.35	41	81.337	18.663	1749.65	842.65
